# From US10947188B2, “Small molecule ferroptosis inducers” (THE TRUSTEES OF COLUMBIA UNIVERSITY IN THE CITY OF NEW YORK, priority 2016, dated 2021)
# Biological target: T1, truncated human SQS (Homo sapiens, UniProt P37268)
# T1 construct: truncated human squalene synthase (SQS 31-370) in pET28a expression vector; made in house; host or cells: Escherichia coli BL21-Gold (DE3)
# T1 sequence (P37268 31-370): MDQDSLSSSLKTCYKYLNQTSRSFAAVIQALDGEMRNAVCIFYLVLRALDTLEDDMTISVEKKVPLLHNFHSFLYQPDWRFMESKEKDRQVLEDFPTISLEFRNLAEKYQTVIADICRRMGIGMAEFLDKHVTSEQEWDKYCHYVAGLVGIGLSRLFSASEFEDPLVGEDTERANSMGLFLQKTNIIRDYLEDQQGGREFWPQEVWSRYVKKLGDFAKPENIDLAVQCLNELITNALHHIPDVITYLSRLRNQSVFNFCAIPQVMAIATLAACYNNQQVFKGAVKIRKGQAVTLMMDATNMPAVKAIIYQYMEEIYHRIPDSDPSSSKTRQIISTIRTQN
# Experiment: SQS competition assay with purified truncated SQS, FIN56 and active probe
# Assay type: binding
# Settings: pre-incubation with 100 μM FIN56 for two hours
# Procedure: Bacterial expression and purification of truncated human SQS for competition assay. The plasmid encoding the truncated human squalene synthase (SQS 31-370) in pET28a expression vector, kindly provided by Chia-I Liu and Andrew H. J. Wang (Academia Sinica, Taiwan), was confirmed by DNA sequencing (Gene Wiz, Inc.) and then used to transform Escherichia coli BL21-Gold (DE3) competent cells (Agilent Technologies). The cells with the construct were grown in LB media supplemented with 100 μg/mL […] at 37° C. until the OD600 reached 1. Protein expression was induced with 0.5 mM isopropyl β-D-thiogalactoside at 17° C. overnight (12-13 h). Cells were pelleted (4,000 g, 20 min, 4° C.) and lysed by sonication in SQS buffer (50 mM Tris, pH 7.4, 250 mM NaCl, 5 mM imidazole, 5 mM MgCl2, 1 mM TCEP). Cell lysate was then centrifuged at 15,000 g for 45 min at 4° C. The supernatant was loaded onto a chromatography column containing Ni Sepharose 6 Fast Flow beads (GE Life Sciences) equilibrated with SQS buffer. After two washes and one nonspecific wash of the beads, the bound SQS was eluted with 250 mM imidazole in the same buffer. The purity of eluted fractions was verified by SDS-PAGE as more than 90% pure. The fractions containing SQS were concentrated, flash-frozen, and stored at −80° C.
# SQS competition assay with purified truncated SQS, FIN56, and active probe. […]
smiles,measurement,value
"O=S(=O)(NC1CCCCC1)c1ccc2c(c1)C(=NO)c1cc(S(=O)(=O)NC3CCCCC3)ccc1-2 [FIN56, N2,N7-dicyclohexyl-9-(hydroxyimino)-9H-fluorene-2,7-disulfonamide]",competition of SQS binding to active affinity probe,efficiently suppressed
